Measured values from ChEMBL document CHEMBL1156141, “Synthesis and biological evaluation of novel thiocolchicine-podophyllotoxin conjugates” (Eur J Med Chem, 2010).
Activity calls are given as the source filed them. The calls are words filed in the database; no cut-off is given here.

How the values were obtained:
A549 [1] = conditions: Homo sapiens, at 0.5 µM
Description: Inhibition of microtubule in human A549 cells assessed as roundish cells at 0.5 uM after 24 hrs by immunofluorescence analysis

A549 [2] = conditions: Homo sapiens, at 0.5 µM; remark: listed apart in the source
Description: Inhibition of microtubule in human A549 cells assessed as network disappearane at 0.5 uM after 1 hr by immunofluorescence analysis

A549 [3] = assay: Inhibition of microtubule in human A549 cells assessed as roundish cells at 0.5 uM after 1 hr by immunofluorescence analysis; assay type: cell-based
[4] = Chemical stability assessed as disulfide cleavage after 3 hrs by ESI-MS in presence of L-glutathione; assay type: physicochemical
A549 [5] = assay: Inhibition of microtubule in human A549 cells assessed as microtubule organization at 0.5 uM after 1 hr by immunofluorescence analysis; assay type: cell-based

## COc1cc([C@@H]2c3cc4c(cc3[C@H](O)[C@H]3COC(=O)[C@H]23)OCO4)cc(OC)c1OC
A549 [1]
  inhibition: Active
A549 [2]
  inhibition: Active

## COc1cc([C@@H]2c3cc4c(cc3[C@H](OC(=O)CSSCC(=O)O[C@H]3c5cc6c(cc5[C@@H](c5cc(OC)c(OC)c(OC)c5)[C@H]5C(=O)OC[C@@H]53)OCO6)[C@H]3COC(=O)[C@H]23)OCO4)cc(OC)c1OC
A549 [3]
  inhibition: 50%
A549 [1]
  inhibition: Active

## COc1cc2c(c(OC)c1OC)-c1ccc(SC)c(=O)cc1[C@@H](NC(=O)CCSSCCC(=O)N[C@H]1CCc3cc(OC)c(OC)c(OC)c3-c3ccc(SC)c(=O)cc31)CC2
A549 [1]
  inhibition: Active
A549 [2]
  inhibition: Active

## COc1cc([C@@H]2c3cc4c(cc3[C@H](OC(=O)CCCSSCCCC(=O)N[C@H]3CCc5cc(OC)c(OC)c(OC)c5-c5ccc(SC)c(=O)cc53)[C@H]3COC(=O)[C@H]23)OCO4)cc(OC)c1OC
A549 [1]
  inhibition: Active
A549 [2]
  inhibition: Active

## COc1cc2c(c(OC)c1OC)-c1ccc(SC)c(=O)cc1[C@@H](NC(=O)CSSCC(=O)N[C@H]1CCc3cc(OC)c(OC)c(OC)c3-c3ccc(SC)c(=O)cc31)CC2
A549 [1]
  inhibition: Active
A549 [2]
  inhibition: Active
[4]
  Stability: Unstable

## COc1cc([C@@H]2c3cc4c(cc3[C@H](OC(=O)CCCCC(=O)O[C@H]3c5cc6c(cc5[C@@H](c5cc(OC)c(OC)c(OC)c5)[C@H]5C(=O)OC[C@@H]53)OCO6)[C@H]3COC(=O)[C@H]23)OCO4)cc(OC)c1OC
A549 [1]
  inhibition: Active
A549 [5]
  inhibition: inactive

## COc1cc([C@@H]2c3cc4c(cc3[C@H](OC(=O)C(N)CSSCC(N)C(=O)O[C@H]3c5cc6c(cc5[C@@H](c5cc(OC)c(OC)c(OC)c5)[C@H]5C(=O)OC[C@@H]53)OCO6)[C@H]3COC(=O)[C@H]23)OCO4)cc(OC)c1OC (stereo partly specified)
A549 [1]
  inhibition: Active
A549 [2]
  inhibition: Active

## COc1cc2c(c(OC)c1OC)-c1ccc(SC)c(=O)cc1[C@@H](NC(=O)C(N)CCCCC(N)C(=O)N[C@H]1CCc3cc(OC)c(OC)c(OC)c3-c3ccc(SC)c(=O)cc31)CC2 (stereo partly specified)
A549 [1]
  inhibition: Active
A549 [5]
  inhibition: inactive

## COc1cc2c(c(OC)c1OC)-c1ccc(SC)c(=O)cc1[C@@H](NC(=O)CCCCC(=O)N[C@H]1CCc3cc(OC)c(OC)c(OC)c3-c3ccc(SC)c(=O)cc31)CC2
A549 [3]
  inhibition: 50%
A549 [1]
  inhibition: Active

## COc1cc2c(c(OC)c1OC)-c1ccc(SC)c(=O)cc1[C@@H](NC(=O)C(N)CSSCC(N)C(=O)N[C@H]1CCc3cc(OC)c(OC)c(OC)c3-c3ccc(SC)c(=O)cc31)CC2 (stereo partly specified)
A549 [3]
  inhibition: 50%
A549 [1]
  inhibition: Active
